According to US11045456B2, “Compositions and methods for treating COPD and other inflammatory conditions” (Georgia State University Research Foundation, Inc., priority 2015, dated 2021):

Columns and labels:
[1] = test system: CCL5, CCL7, CXCL10, CXCL11, IL-8, GM-CSF and TNF-α; experiment: NTHi-induced expression of pro-inflammatory mediators in BEAS-2B cells; type: cell-based, human
Procedure: Bacterial strains and culture condition. […] Bacteria were grown on chocolate agar plates at 37° C. in an atmosphere of 5% CO2 overnight and subsequently inoculated in brain heart infusion (BHI) broth supplemented with 3.5 μg/mL NAD and hemoglobin (BD Biosciences). After overnight incubation, the bacteria were subcultured into fresh broth and the log phase bacteria, monitored by measurement of optical density (OD) value, were washed and suspended in DMEM for in vitro cell experiments and in isotonic saline for in vivo animal experiments. For all in vitro experiments except the dose dependent experiment, NTHi was treated at multiplicity of infection (MOI) of 50.
Cell culture. All media described below were supplemented with 10% fetal bovine serum (Sigma-Aldrich). […] BEAS-2B cells stably expressing human PDE4B2 (PDE4B2-stable cells) were obtained by plasmid transfection following Geneticin selection (300 μg/mL). Cells were cultured in a humidified atmosphere of 5% CO2 at 37° C.

PDE4 = settings: estimated; Bender and Beavo; cited from earlier work
[2] = test system: Group A chemokines (CCL5, CCL7, CXCL10, CXCL11); experiment: IKKβ-CA-induced Group A-chemokine expression in PDE4B2-transfected cells; type: cell-based, human; settings: up to 10 μM
Procedure: Plasmids, transfections and luciferase assay. […] Empty vector was used as a control and was also added where necessary to ensure an equivalent amount of input DNA. All transient transfections were carried out in triplicate using TRANSIT-LT1® reagent (Minis) following the manufacturer's instruction.

PDE4D = experiment: Expression of PDE4D in BEAS-2B cells; type: cell-based, human; settings: NTHi or roflumilast
From the text: (§1) All media described below were supplemented with 10% fetal bovine serum (Sigma-Aldrich). Human bronchial epithelial BEAS-2B cells were maintained in RPMI medium (Life Technologies) (ATCC® CRL-9609™). Human primary bronchial epithelial NHBE (Lonza) cells were maintained in bronchial epithelial growth media (BEGM) supplemented with BEGM SingleQuots (Jono et al., J. Biol. Chem. 277(47):45547-45557, 2002). BEAS-2B cells stably expressing human PDE4B2 (PDE4B2-stable cells) were obtained by plasmid transfection following Geneticin selection (300 μg/mL). Cells were cultured in a humidified atmosphere of 5% CO2 at 37° C.

PDE4B2 = PDE4B2 protein expression (Western blot) in mouse lung tissue extracts; type: in vivo; settings: NTHi and roflumilast
Procedure: Western blot. Whole-cell extracts and mouse lung tissue extracts were recovered with lysis buffer (50 mM Tris-HCl at pH7.4, 1% NP40, 0.25% deoxycholate, 150 mM NaCl, 1 mM EDTA, 1 mM NaF, supplemented with 1 mM Na3VO4 and PIC). For PDE4B protein, cell extracts were recovered with Buffer A as described above. Cell or tissue extracts were separated on 8% SDS-PAGE gels and transferred to polyvinylidene difluoride (PVDF) membrane (GE Healthcare Life Sciences). The membrane was blocked with a solution of TBS containing 0.1% Tween 20 (TBS-T) and 5% non-fat dry milk. The membrane was then incubated in a 1:1,000-1:2,000 dilution of a primary antibody in 5% BSA-TBS-T. After washing (×3) with TBS-T, the membrane was incubated with a 1:5,000 dilution of the corresponding secondary antibody in 2.5% non-fat dry milk-TBS-T. Respective proteins were visualized using Amersham ECL Prime Regent (GE Healthcare Life Sciences).
Mice and animal experiments. […]
Immunofluorescent staining. Formalin-fixed paraffin-embedded mouse lung tissue was sectioned (4 μm) and PDE4B protein was detected using a rabbit anti-PDE4B and an FITC-conjugated goat anti-rabbit IgG (Santa Cruz Biotechnology). Stained sections were then imaged, and images were recorded under light- and fluorescence-microscopy systems (AxioVert 40 CFL, AxioCam MRC, and AxioVision LE Image system, Carl Zeiss).

[3] = test system: CCL5, CCL7, CXCL10 and CXCL11; experiment: NTHi-induced chemokine expression in PDE4B2-stable cells; type: cell-based, human
From the text: as §1

Structure (SMILES): O=C(Nc1c(Cl)cncc1Cl)c1ccc(OC(F)F)c(OCC2CC2)c1 [roflumilast]
- NTHi-induced induction of CCL5, CCL7 and IL-8 ([1]; BEAS-2B cells): modestly suppressed
- NTHi-induced induction of TNF-α and GM-CSF ([1]; BEAS-2B cells): markedly inhibited
- NTHi-induced CXCL10 and CXCL11 induction ([1]; BEAS-2B cells, even at higher concentration): almost no inhibitory effect
- efficacy in suppressing Group A-chemokines ([1]; in PDE4B-depleted but not in PDE4D-depleted cells): more efficacious
- IC50 (PDE4): < 1 nM
- IKKβ-CA-induced Group A-chemokine expression ([2]; cells overexpressing PDE4B2-WT or PDE4B2-D392A): unable to fully inhibit
- IKKβ-CA-induced Group A-chemokine expression ([2]; cells transfected with PDE4B2-D392A): unable to fully inhibit
- expression of PDE4D (PDE4D): up-regulated by NTHi or roflumilast but no significant synergistic effect
- ~70-kDa PDE4B isoform (PDE4B2 protein) (PDE4B2): induced an increase
- NTHi-induced expression of CCL5, CCL7, CXCL10 and CXCL11 (Group A-chemokines) ([3]; highest concentration tested (10 μM)): unable to fully inhibit
- NTHi-induced expression of CXCL10 and CXCL11 ([3]; lower dose of roflumilast (<1 μM)): slightly enhanced
